Experimental data as given in patent US10093651B2, “Ghrelin O-acyl transferase inhibitors” (Eli Lilly and Company, priority 2015, dated 2018).

Experiments:
human GOAT = human GOAT (Homo sapiens (Human), UniProt Q96T53); assay: In vitro cell free human GOAT enzymatic assay; assay type: biochemical; settings: purified GOAT enzyme, ELISA readout of acyl-ghrelin
Method: In Vitro Cell Free Human GOAT Enzymatic Assay
Human GOAT gene (Accession number: NM 001100916) is subcloned to pAN51 baculoviral expression vector. Baculovirus stock is prepared following the Bac-to-Bac Protocol provided by the vendor, Invitrogen, California, USA. Five mililiters of human GOAT baculoviral stock are added to 500 mL SDf cells in HyQ SFX-Insect™ media (HyClone catalog number SF130278.02) at the density of 1×10^6 cells per milliliter in a 2 L Erlenmeyer flask. The flask with human GOAT gene infected Sf9 cells is put on a plate shaker at 120 rpm at 28° C. for 48 hours. After 48 hours incubation, cells are centrifuged at 1,000×g for 10 min at 4° C. The cell pellets are collected and stored at −80° C. in a freezer until ready for further processing.
Preparation of Microsomal Membrane of GOAT Enzyme for the Enzymatic Assay:
One gram cell pellets are suspended in 9 mL chilled homogenization buffer (50 mM Tris-HCl, 250 mM sucrose, adjusted to pH 7.5 and sterile filtered through 0.2 μm Millipore filter). The cell suspension is transferred to a Dounce glass homogenizer. Cell pellets are homogenized with 40 strokes on ice. The homogenate is centrifuged at 3,000 rpm in a Beckman swing bucket rotor at 4° C. for 10 min to remove unbroken cells. The supernatant is collected and centrifuged at 40,000×g for 1 hour at 4° C. The resulting membrane pellet is suspended in the homogenization buffer using a Dounce glass homogenizer and stored at −20° C. in the freezer for the assay. For long term storage of the human GOAT enzyme membrane preparation, the suspended membrane is stored in a −80° C. freezer.
Human GOAT Enzymatic Assay Protocol:
Prepare test compounds in DMSO to make up a 0.2 mM stock solution. Serially dilute the stock solution in DMSO to obtain a ten-point dilution curve with final compound concentrations ranging from 10 μM to 0.5 nM in a 96-well round-bottom plate. Prepare enzyme and substrate solutions in assay buffer (0.02% TWEEN™-20 in 50 mM Tris, pH 7.5/250 mM sucrose/1 mg/mL BSA/10 mM EDTA). Add diluted compound (1 μL) to each well of row A to N of a corresponding low protein binding 384 well plate. Add human GOAT substrate mix (10 μL), consisting of human desacyl-ghrelin-biotin (CPC Scientific Inc., 6.0 μM final), octanoyl-coenzyme A (CoA) (Sigma, 60 μM final) and an AG specific antibody (WO 2006/091381)([…] final), to the compounds. Add GOAT-His/sf9 enzyme preparation, that has been prepared in assay buffer (9 μL), to each well of the plate containing substrate and test compounds resulting in a final concentration of 0.01 μg/mL to initiate the reaction. Incubate the mixture for 1 hour at RT on a gently rotating oscillator. Add 4M guanidine hydrochloride (20 μL) to all wells, mix, and incubate for 3 hours to stop the reaction.
Prepare ELISA plates (STREPTAVIDIN SPECTRAPLATE™ 384, Perkin Elmer) by blocking with 2% Heat-Inactivated FBS in PBS (40 μL) (Invitrogen) blocking buffer for 3 hours. Aspirate the blocking buffer from ELISA plate and add blocking buffer (23 μL) to columns 1-24, rows A-N. Reserve rows O and P for the acylghrelin standard curve. Add the reaction mix (2 μL) to the ELISA plates. Prepare a 10 point standard curve (biotin-labeled octanoyl-ghrelin) by serial 2× dilution in blocking buffer containing 0.2M Guanidine hydrochloride starting at 2.5 pM. Incubate the reaction mixture or biotin-labeled AG standard in the ELISA plate overnight at 4° C. […]

GOAT = GOAT (Mus musculus (Mouse), UniProt P0C7A3); assay: In vivo dose dependent 3 day BID study for GOAT inhibitor (plasma AG and UAG by ELISA); parameters: species or system male C57BL/6 mice; settings: mice, 3 days; for reduction in AG to total ghrelin ratio: compared to vehicle-treated control animals; for decrease of plasma AG / increase of UAG: vs vehicle; for AG (% of control) / AG/Total-ghrelin (% of vehicle control) / UAG (% of vehicle control) / increase of UAG: plasma
Method: Comparing the change in the ratio of AG to total ghrelin in the compound treated group and that of the vehicle treated group reflects the degree of GOAT enzyme inhibition in vivo, due to the dynamic processing of UAG to AG by the GOAT enzyme. In the in vivo pharmacodynamic studies herein, the levels of AG and UAG in plasma and stomach in the vehicle and compound treated groups are measured by ELISA specifically to these two analytes. The total ghrelin level of each sample is computed as the sum of AG and UAG by these ELISA measurements. The ratio of AG to total ghrelin is defined by the level of AG in each sample divided by the level of total ghrelin in the same sample. The levels of AG, UAG and ratio of AG to total ghrelin in the vehicle treated group is computed and set as 100%. The relative change of these parameters in the compound treated group is then computed to determine the effectiveness of the test compound.
In Vivo Dose Dependent 3 Day BID Study for GOAT Inhibitor:E
Purchase male C57BL/6 mice from Harlaan (Indianapolis, Ind.) at 9 weeks of age. House the mice individually in a temperature-controlled (24° C.) facility with a 12 hours light/dark cycle (lights on 2200 h), and allow free access to a standard rodent chow (diet 2014, Harlan) and water. Typically, use the mice when they are 10-13 weeks of age at the time of the study. On day 0 of the experiment, randomize the mice into treatment groups (N=7/group) so each group has similar mean body weights. On day 1 and day 2, treat the animals with vehicle (1% hydroxyethylcellulose, 0.25% TWEEN™ 80, 0.05% antifoam) or test compound prepared in the vehicle as suspension at various dosages by oral gavage at 7 am and 7 pm. On day 3, fast the animals, move them into clean cages and dose with vehicle or the test compound again at 8 am by oral gavage. That same day at 1 pm, sacrifice the animals by decapitation to collect blood. For details of blood collection and plasma treatments see Blood collection and Extraction of Ghrelin from Plasma section below.
Collect approximately 600 μL blood into a pre-weighed EDTA tube containing 600 μL (defined as Vpreservative) freshly-prepared preservative (4 mM PEFABLOC® [4-(2-aminoethyl) benzenesulfonyl fluoride hydrochloride], 72 mM NaCl, 58 mM NaF, 0.032 N hydrochloric acid, pH 3.0) and mix immediately. Weigh the tube again and keep on ice. To accurately determine the exact blood volume of each sample using this blood collection procedure, the weight of the blood for each mouse is computed using the following equation: Weight of Blood=(Weight of the tube containing Blood+preservative)−(Weight of the tube containing preservative) Blood volume (Vblood)=(Weight of blood)/1.06
Note, the density of rodent blood is assumed as 1.06 g/mL.
Within 15 minutes after the blood collection, samples are centrifuged at 5000 rpm at 4° C. for 8 min. Remove plasma (650 μL) to a 5 mL glass tube containing 1 N hydrochloric acid (65 μL), mix and keep on ice.
Ghrelin Extraction by SEP-PAK® Column:
AG and UAG are extracted from plasma using SEP-PAK®_C18 column to remove interference prior to performing the ELISA. The solid phase extraction of AG and UAG peptides by SEP-PAK®_C18 columns can be performed on a vacuum manifold (Waters Corp) or using a peristaltic pump. The sample SEP-PAK®_column extraction procedure is independently applied to the plasma sample obtained from each individual mouse. The general extraction protocol is described as follows.
All solutions used for the entire protocol of the SEP-PAK® column extraction should be at ice cold condition. Wet SEP-PAK®_columns (WAT054960, Waters Corp, Milford Mass.) with 99.9% ACN/0.1% TFA (1 mL of solution of 100 mL ACN/0.1 mL TFA). […] Once liquid is removed from the column, stop the pressure. Equilibrate the columns with 3% ACN/0.1% TFA (I mL of 97 mL water, 3 mL ACN, 0.1 mL TFA). […] Dilute approximately 650 μL acidified plasma (defined as Vplasma added to column) to 1.4 mL ice cold 0.1% TFA. […]

Chain of GOAT (P0C7A3 whole entry): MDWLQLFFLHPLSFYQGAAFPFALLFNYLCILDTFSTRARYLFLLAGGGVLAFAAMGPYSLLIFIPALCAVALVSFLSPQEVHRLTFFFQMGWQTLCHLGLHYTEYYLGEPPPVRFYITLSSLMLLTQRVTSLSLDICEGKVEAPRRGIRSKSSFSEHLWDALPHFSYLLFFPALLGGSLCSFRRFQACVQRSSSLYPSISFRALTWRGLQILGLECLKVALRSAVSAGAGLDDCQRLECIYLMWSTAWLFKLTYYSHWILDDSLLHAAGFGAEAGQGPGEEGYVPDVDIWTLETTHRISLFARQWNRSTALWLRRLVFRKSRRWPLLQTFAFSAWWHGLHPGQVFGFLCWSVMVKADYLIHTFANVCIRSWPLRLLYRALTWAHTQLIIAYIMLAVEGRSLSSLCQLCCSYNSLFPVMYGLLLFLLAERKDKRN
Chain of human GOAT (Q96T53 whole entry): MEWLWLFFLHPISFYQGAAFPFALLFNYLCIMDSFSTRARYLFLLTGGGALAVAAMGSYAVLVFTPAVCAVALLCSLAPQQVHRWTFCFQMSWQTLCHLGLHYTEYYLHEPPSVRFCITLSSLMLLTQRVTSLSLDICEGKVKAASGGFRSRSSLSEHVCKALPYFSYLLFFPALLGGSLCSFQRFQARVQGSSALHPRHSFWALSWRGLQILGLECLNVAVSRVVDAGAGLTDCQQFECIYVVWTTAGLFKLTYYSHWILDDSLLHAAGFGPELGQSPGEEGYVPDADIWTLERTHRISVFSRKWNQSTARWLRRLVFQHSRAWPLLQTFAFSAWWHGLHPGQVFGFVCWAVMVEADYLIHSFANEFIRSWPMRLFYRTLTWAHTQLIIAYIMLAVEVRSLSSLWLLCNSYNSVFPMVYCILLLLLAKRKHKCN

COc1ccccc1C(=O)N[C@@H](C)C(=O)N1CCC(CCc2c(C)nc(C(F)(F)F)nc2N)CC1 [Example 17, N-[(1S)-2-[4-[2-[4-Amino-6-methyl-2-(trifluoromethyl)pyrimidin-5-yl]ethyl]-1-piperidyl]-1-methyl-2-oxo-ethyl]-2-methoxy-benzamide]
IC50 (human GOAT): 420 nM

Cc1nc(C(F)(F)F)nc(N)c1CCC1CCN(C(=O)[C@H](C)NC(=O)c2nccnc2Cl)CC1 [Example 15, N-[(1S)-2-[4-[2-[4-Amino-6-methyl-2-(trifluoromethyl)pyrimidin-5-yl]ethyl]-1-piperidyl]-1-methyl-2-oxo-ethyl]-3-chloro-pyrazine-2-carboxamide]
IC50 (human GOAT): 55.7 nM

COC(=O)N[C@@H](C)C(=O)N1CCC(CCc2c(C)nc(C(F)(F)F)nc2N)CC1 [Example 20, Methyl-[(1S)-2-[4-[2-[4-amino-6-methyl-2-(trifluoromethyl)pyrimidin-5-yl]ethyl]-1-piperidyl]-1-methyl-2-oxo-ethyl]carbamate]
IC50 (human GOAT): 615 nM

Cc1nc(C(F)(F)F)nc(N)c1CCC1CCN(C(=O)[C@H](C)NC(=O)c2ccnn2C)CC1 [Example 2, N-[(1 S)-2-[4-[2-[4-Amino-6-methyl-2-(trifluoromethyl)pyrimidin-5-yl]ethyl]-1-piperidyl]-1-methyl-2-oxo-ethyl]-2-methyl-pyrazole-3-carboxamide]
reduction in AG to total ghrelin ratio (GOAT; 0.1 mg/kg): 57% | decrease of plasma AG (GOAT; 0.1 mg/kg): 40% | reduction in AG to total ghrelin ratio (GOAT; 0.3 mg/kg): 62% | decrease of plasma AG (GOAT; 0.3 mg/kg): 60% | reduction in AG to total ghrelin ratio (GOAT; 1 mg/kg): 79% | decrease of plasma AG (GOAT; 1 mg/kg): 56% | reduction in AG to total ghrelin ratio (GOAT; 3 mg/kg): 82% | decrease of plasma AG (GOAT; 3 mg/kg): 63% | reduction in AG to total ghrelin ratio (GOAT; 10 mg/kg): 82% | decrease of plasma AG (GOAT; 10 mg/kg): 63% | AG (% of control) (GOAT; 0.1 mg/kg oral gavage BID): 60 ± 8 (n = 7) % of control | AG/Total-ghrelin (% of vehicle control) (GOAT; 0.1 mg/kg oral gavage BID): 43 ± 3 (n = 7) % of vehicle control | UAG (% of vehicle control) (GOAT; 0.1 mg/kg oral gavage BID): 210 ± 43 (n = 7) % of vehicle control | increase of UAG (GOAT; 0.1 mg/kg): 2.10 fold | AG (% of control) (GOAT; 0.3 mg/kg oral gavage BID): 40 ± 10 (n = 7) % of control | AG/Total-ghrelin (% of vehicle control) (GOAT; 0.3 mg/kg oral gavage BID): 28 ± 1 (n = 7) % of vehicle control | UAG (% of vehicle control) (GOAT; 0.3 mg/kg oral gavage BID): 222 ± 54 (n = 7) % of vehicle control | increase of UAG (GOAT; 0.3 mg/kg): 2.22 fold | AG (% of control) (GOAT; 1 mg/kg oral gavage BID): 44 ± 6 (n = 14) % of control | AG/Total-ghrelin (% of vehicle control) (GOAT; 1 mg/kg oral gavage BID): 21 ± 1 (n = 14) % of vehicle control | UAG (% of vehicle control) (GOAT; 1 mg/kg oral gavage BID): 357 ± 30 (n = 14) % of vehicle control | increase of UAG (GOAT; 1 mg/kg): 3.57 fold | AG (% of control) (GOAT; 3 mg/kg oral gavage BID): 37 ± 9.6 (n = 14) % of control | AG/Total-ghrelin (% of vehicle control) (GOAT; 3 mg/kg oral gavage BID): 18 ± 5 (n = 14) % of vehicle control | UAG (% of vehicle control) (GOAT; 3 mg/kg oral gavage BID): 349 ± 41 (n = 14) % of vehicle control | increase of UAG (GOAT; 3 mg/kg): 3.49 fold | AG (% of control) (GOAT; 10 mg/kg oral gavage BID): 37 ± 9.9 (n = 7) % of control | AG/Total-ghrelin (% of vehicle control) (GOAT; 10 mg/kg oral gavage BID): 18 ± 3 (n = 7) % of vehicle control | UAG (% of vehicle control) (GOAT; 10 mg/kg oral gavage BID): 378 ± 59 (n = 7) % of vehicle control | increase of UAG (GOAT; 10 mg/kg): 3.78 fold | IC50 (human GOAT): 69.5 ± 0.6 nM

Cc1nc(C(F)(F)F)nc(N)c1CCC1CCN(C(=O)[C@H](C)NC(=O)CO)CC1 [Example 18, N-[(1S)-2-[4-[2-[4-Amino-6-methyl-2-(trifluoromethyl)pyrimidin-5-yl]ethyl]-1-piperidyl]-1-methyl-2-oxo-ethyl]-2-hydroxy-acetamide]
IC50 (human GOAT): 276 nM
